The target of the test is N-formyl peptide receptor 2 (Homo sapiens) (UniProt P25090). The test can be described thus: FPRL1 binding inhibitor potency, dose response, cell-based, FPR counter-screen, fluorescent ligand (AID 520). To be noted: FPRL1-expressing cells, fluorescent ligand binding inhibition; for Ki: measured here: FPRL1 binding Ki. On the technique in general: The purpose of a counterscreen is to sort out artefacts and off-target activity.

The text below walks through data of PubChem BioAssay AID520 (NMMLSC, 2006).

SMILES strings stand for the structures. Active and inactive are the calls of the source. How the calls were made is not given here.

Sequence of N-formyl peptide receptor 2 (Homo sapiens) (P25090 whole entry, looked up): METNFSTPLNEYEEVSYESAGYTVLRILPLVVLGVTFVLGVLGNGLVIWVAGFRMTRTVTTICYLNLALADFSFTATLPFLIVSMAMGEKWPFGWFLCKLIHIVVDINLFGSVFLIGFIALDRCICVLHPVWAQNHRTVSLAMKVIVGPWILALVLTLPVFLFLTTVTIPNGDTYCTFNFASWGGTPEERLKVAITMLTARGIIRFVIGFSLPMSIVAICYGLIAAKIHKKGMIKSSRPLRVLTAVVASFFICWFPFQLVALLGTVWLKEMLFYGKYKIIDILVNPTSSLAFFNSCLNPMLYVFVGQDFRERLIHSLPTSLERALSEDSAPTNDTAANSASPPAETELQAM

Take `O=C(C1=C(O)C(=O)N(c2ncccn2)C1c1ccc(Cl)cc1)c1ccco1` (stereo not given): the IC50 was > 66.7 µM (inactive) and the inhibitory constant (Ki) is more than 40.3 µM.
Turning to `COc1ccc(C2C(C(=O)c3ccco3)=C(O)C(=O)N2Cc2cccnc2)cc1OC` (stereo not given), the IC50 is > 66.7 µM (inactive) and the Ki was more than 40.3 µM.
In turn, `COc1ccc(-c2cc(C(F)(F)F)nc(NC3CCCC3)n2)cc1OC` gave a Ki of more than 40.3 µM.
On the same count and under the same terms, then `O=C(O)CC1Oc2ccc(Cl)cc2NC1=O` (stereo not given), with more than 40.3 µM; and `Cc1nc2c(C#N)c[nH]n2c(=O)c1Cc1ccccc1`, with more than 40.3 µM; and `CC(C)(C)CC(=O)Nc1ccc(Nc2ccccc2)cc1`, with more than 40.3 µM.
On the same count and under the same terms, then `Cc1c(C(=O)NC2CCCc3ccccc32)oc2ccc(S(=O)(=O)N3CCOCC3)cc12` (stereo not given), with more than 40.3 µM.
For `O=C(C1=C(O)C(=O)N(Cc2ccco2)C1c1ccccc1)c1cccs1` (stereo not given), the IC50 was > 66.7 µM (inactive) and the Ki was more than 40.3 µM.
`Cc1oc2cc(O)cc(O)c2c(=O)c1-c1ccc2c(c1)OCCCO2` returned a Ki of more than 40.3 µM.
Consider `Cc1ccc(C2C(C(=O)c3sc(C)nc3C)=C(O)C(=O)N2CCN2CCOCC2)o1` (stereo not given), for which the IC50 is > 66.7 µM (inactive) and the inhibition constant Ki was more than 40.3 µM.
In the case of `COc1ccc(OC)c(NC(=O)C2C3CCC(C3=C(C)C)C2C(=O)O)c1` (stereo not given), the inhibition constant Ki is more than 40.3 µM.
`CCC(NC(=O)Nc1cc(OC)c(OC)c(OC)c1)(C(F)(F)F)C(F)(F)F`: the Ki is more than 40.3 µM.
As to `COc1ccc(OC)c(C2C(C(=O)c3ccco3)=C(O)C(=O)N2CCCN2CCOCC2)c1` (stereo not given), the IC50 was > 66.7 µM (inactive) and the inhibition constant Ki was more than 40.3 µM.
On the same counts, the results for `O=C(C1=C(O)C(=O)N(CCCN2CCOCC2)C1c1ccccn1)c1cc2ccccc2o1` (stereo not given) are > 66.7 µM (inactive) and more than 40.3 µM.
Consider `CCOC(=O)N1CCN(c2cc(NCCC(=O)O)c3c4c(onc24)-c2ccccc2C3=O)CC1`, for which the inhibitory constant (Ki) worked out at 30.1 µM.
Same read-out and setting: then `COc1ccc(-c2cc(C(F)(F)F)nc(N3CCN(c4ccccc4)CC3)n2)cc1OC`, with more than 40.3 µM; and `Fc1ccc(-c2nnc3ccc(N4CCCC4)nn23)cc1`, with more than 40.3 µM; and `COc1ccccc1-n1c(CNC(=O)c2ccco2)nnc1SCC(=O)Nc1ccc(F)cc1`, with more than 40.3 µM.
On to `O=C(c1ccc(Cl)cc1)N(Cc1cccs1)C1CCS(=O)(=O)C1` (stereo not given), for which the Ki was more than 40.3 µM.
With `Cc1ccc(C2/C(=C(/O)c3ccc(Cl)cc3)C(=O)C(=O)N2CC2CCCO2)o1` (stereo not given), the IC50 is > 66.7 µM (inactive) and the Ki is more than 40.3 µM.
In turn, `CCOC(=O)CSc1nnc(CNC(=O)c2cc(OCC)c(OCC)c(OCC)c2)n1C` displayed a Ki of 6.7 µM.
Still for that read-out and setting: then `O=C(Nc1nnc(-c2ccccc2Cl)o1)c1ccc(S(=O)(=O)N2CCCCCC2)cc1`, with more than 40.3 µM.
Still for that read-out and setting: then `COc1cccc(-c2nc(CS(=O)(=O)CC(=O)NCCC(C)C)c(C)o2)c1`, with more than 40.3 µM.
On to `C=CCOc1ccc(C2C(C(=O)c3ccco3)=C(O)C(=O)N2Cc2cccnc2)cc1` (stereo not given), for which the IC50 is > 66.7 µM (inactive) and the Ki is more than 40.3 µM.
`O=S(=O)(Nc1cccc2ncccc12)c1cccs1` gave a Ki of more than 40.3 µM.
Molecule `Clc1ccc(C2CC(c3cccs3)n3ncnc3N2)cc1Cl` (stereo not given) had a Ki of more than 40.3 µM.
Take `O=C(C1=C(O)C(=O)N(CCN2CCOCC2)C1c1ccccc1)c1cccs1` (stereo not given): the IC50 was > 66.7 µM (inactive) and the Ki was more than 40.3 µM.
`Cc1[nH]n2c(=O)cc(-c3ccc([N+](=O)[O-])cc3)nc2c1-c1ccccc1` had a Ki of 19.1 µM.
Still for that read-out and setting: then `CCSc1nnc(NC(=O)CSc2nnc(Cc3cccn3C)n2CCc2ccccc2)s1`, with more than 40.3 µM.
On to `COc1ccc(/C(O)=C2/C(=O)C(=O)N(c3nc(C)c(C)s3)C2c2ccco2)cc1` (stereo not given), for which the IC50 is > 66.7 µM (inactive) and the Ki was more than 40.3 µM.
With `CCN(CCCc1ccccc1)CCCc1ccccc1`, the inhibition constant Ki was more than 40.3 µM.
Regarding `Cc1ccc(C(=O)C2=C(O)C(=O)N(CCCn3ccnc3)C2c2ccc(OC(C)C)cc2)o1` (stereo not given), the IC50 is > 66.7 µM (inactive) and the Ki is more than 40.3 µM.
`CCN(C(=O)Cc1c(C(=O)O)[nH]c2ccccc12)c1cc(OC)ccc1OC`: the Ki is more than 40.3 µM.
On the same count and under the same terms, then `CN1CCN(CCCNC(=O)Nc2cccc3ccccc23)CC1`, with more than 40.3 µM; and `CCC(SC1=Nc2ccccc2C2=NC(CC(C)C)C(=O)N12)C(=O)Nc1ccc2c(c1)OCO2` (stereo not given), with more than 40.3 µM; and `CC(C)OC(=O)c1nnn(-c2nonc2N)c1CN1CCc2ccccc2C1`, with more than 40.3 µM.
`COc1ccccc1C1/C(=C(/O)c2ccccc2)C(=O)C(=O)N1CC(C)O` (stereo not given): the IC50 is > 66.7 µM (inactive) and the Ki was more than 40.3 µM.
For the molecule `COc1ccc2c(=O)c(-c3cnn(-c4ccccc4)c3)c(C)oc2c1`, the Ki was more than 40.3 µM.
In the case of `COc1ccc(OC)c(C2C(C(=O)c3cc4ccccc4o3)=C(O)C(=O)N2c2cc(C)on2)c1` (stereo not given), the IC50 is > 66.7 µM (inactive) and the Ki is more than 40.3 µM.
`Cc1csc(NC(=O)CCn2c(=O)oc3ccccc32)n1`: the Ki is more than 40.3 µM.
On the same count and under the same terms, then `COc1ccc2ccccc2c1C1CC(=O)N2CN(C3CCCCC3)CSC2=C1C#N` (stereo not given), with more than 40.3 µM.
On the same count and under the same terms, then `Cc1sc(NC(=O)C2CCCCC2C(=O)O)c(C(N)=O)c1-c1ccc(C(C)(C)C)cc1` (stereo not given), with more than 40.3 µM.
With `C=CCOc1cccc(C2C(C(=O)c3ccco3)=C(O)C(=O)N2CCN2CCOCC2)c1` (stereo not given), the IC50 is > 66.7 µM (inactive) and the Ki is more than 40.3 µM.
Molecule `COc1ccc(-c2cn3cccnc3n2)cc1NC(=O)C1CCCC1` came in with a Ki of more than 40.3 µM.
The same measure, in the same setting: then `COc1ccc(-c2cn3cccnc3n2)cc1NC(=O)CC(C)C`, with 27.2 µM.
In the case of `COc1cc(C2/C(=C(\O)c3ccc4c(c3)CC(C)O4)C(=O)C(=O)N2CCCn2ccnc2)ccc1O` (stereo not given), the IC50 was > 66.7 µM (inactive) and the Ki is more than 40.3 µM.
On the same counts, the results for `COc1ccc(CCN2C(=O)C(O)=C(C(=O)c3ccco3)C2c2cccs2)cc1OC` (stereo not given) are > 66.7 µM (inactive) and more than 40.3 µM.
In the same order, the values of `COCCN1C(=O)C(O)=C(C(=O)c2ccco2)C1c1cccc(Oc2ccccc2)c1` (stereo not given) are > 66.7 µM (inactive) and more than 40.3 µM.
Regarding `CCOC(=O)c1c(C)[nH]c(C=Nc2ccccc2)c1O`, the inhibition constant (Ki) is more than 40.3 µM.
Turning to `O=C(C1=C(O)C(=O)N(CCc2ccccc2)C1c1cccnc1)c1ccco1` (stereo not given), the IC50 was > 66.7 µM (inactive) and the Ki was more than 40.3 µM.
On the same counts, the results for `CCOc1ccc(C2C(C(=O)c3cccs3)=C(O)C(=O)N2CCCn2ccnc2)cc1` (stereo not given) are > 66.7 µM (inactive) and more than 40.3 µM.
`COC(=O)COc1ccc2c(=O)c(Oc3ccccc3)c(C)oc2c1` displayed an inhibitory constant (Ki) of more than 40.3 µM.
On to `CCN(CC)c1ccc(C=N/C(C#N)=C(\N)C#N)cc1`, for which the IC50 was > 66.7 µM (inactive) and the Ki was more than 40.3 µM.
As for `COc1ccccc1NC(=O)CSc1nnc(Cn2nnc(-c3ccccc3)n2)n1-c1ccccc1`, the Ki is more than 40.3 µM.
Same read-out and setting: then `O=C(NC1CCCCC1)c1sc(=S)n2c1[nH]c(=O)c1ccccc12`, with more than 40.3 µM.
Regarding `Cc1ccc(/C(O)=C2/C(=O)C(=O)N(CCN3CCOCC3)C2c2cccnc2)cc1` (stereo not given), the IC50 was > 66.7 µM (inactive) and the Ki is more than 40.3 µM.
Molecule `COc1ccc(-c2c(C)oc3c(CN4CCN(CCO)CC4)c(O)ccc3c2=O)cc1OC` returned a Ki of more than 40.3 µM.
The same measure, in the same setting: then `O=C(NC1CCCC1)c1sc(=S)n2c1[nH]c(=O)c1ccccc12`, with more than 40.3 µM.
As to `CC1Cc2cc(/C(O)=C3\C(=O)C(=O)N(CCN4CCOCC4)C3c3ccccc3F)ccc2O1` (stereo not given), the IC50 is > 66.7 µM (inactive) and the inhibitory constant (Ki) was more than 40.3 µM.
With `Cc1ccccc1Nc1cc2ccccc2c(=O)[nH]1`, the Ki is more than 40.3 µM.
Consider `COc1ccc(-c2nnc(Nc3nc4c(OC)cccc4s3)o2)cc1`, for which the Ki was more than 40.3 µM.
On to `O=C(C1=C(O)C(=O)N(Cc2ccccc2)C1c1ccco1)c1ccco1` (stereo not given), for which the IC50 was > 66.7 µM (inactive) and the Ki is more than 40.3 µM.
In the same order, the values of `O=C1N=c2ccccc2=C1c1sc(=S)n(CC2CCCO2)c1O` (stereo not given) are > 66.7 µM (inactive) and more than 40.3 µM.
Consider `COc1ccc(C2C(C(=O)c3ccco3)=C(O)C(=O)N2CCc2ccccc2)cc1OC` (stereo not given), for which the IC50 was > 66.7 µM (inactive) and the Ki was more than 40.3 µM.
In the same order, the values of `C=CCOc1ccc(C2C(C(=O)c3cccs3)=C(O)C(=O)N2c2nnc(C)s2)cc1` (stereo not given) are > 66.7 µM (inactive) and more than 40.3 µM.
Take `CCOC(=O)Nc1ccc(OC)cc1S(=O)(=O)N1CCCCC1`: the Ki was more than 40.3 µM.
As for `O=C(Nc1ccc(Nc2ccccc2)cc1)c1ccc(Br)o1`, the Ki is more than 40.3 µM.
On the same count and under the same terms, then `Nc1ccc(Nc2ccccc2N)cc1`, with 9.1 µM; and `Cc1ccc(Nc2ccc(C(=O)O)cc2N)cc1`, with more than 40.3 µM; and `O=C(O)C1CC=CCC1C(=O)N1CCN(c2nc(-c3ccccc3)c3ccccc3n2)CC1` (stereo not given), with more than 40.3 µM.
`Cc1nc2c(C)cccn2c1/C(O)=C1\C(=O)C(=O)N(CCN2CCOCC2)C1c1cccs1` (stereo not given): the IC50 is > 66.7 µM (inactive) and the Ki was more than 40.3 µM.
On the same counts, the results for `O=C(C1=C(O)C(=O)N(CC2CCCO2)C1c1cccnc1)c1ccco1` (stereo not given) are > 66.7 µM (inactive) and more than 40.3 µM.
Regarding `CCOC(=O)C1CCN(Cc2ccc(C(=O)OC)cc2)CC1`, the Ki was more than 40.3 µM.
On the same count and under the same terms, then `COC(=O)[C@H](C(C)C)n1c(C)c(C(C)=O)c(C(C)=O)c1C`, with more than 40.3 µM.
As to `COC(=O)c1ccc(C2/C(=C(/O)c3ccc(OC)cc3)C(=O)C(=O)N2Cc2ccco2)cc1` (stereo not given), the IC50 was > 66.7 µM (inactive) and the Ki was more than 40.3 µM.
Molecule `Cc1c(CNCc2cccs2)c(C(=O)O)c(C)n1Cc1ccccc1` had a Ki of more than 40.3 µM.
`COCCCN1C(=O)C(=O)/C(=C(/O)c2ccc(OC)cc2C)C1c1cccnc1` (stereo not given): the IC50 was > 66.7 µM (inactive) and the Ki was more than 40.3 µM.
Consider `O=c1cc(-c2ccccc2)nc(N2CCN(Cc3ccccc3)CC2)[nH]1`, for which the Ki was more than 40.3 µM.
As for `Cc1cc(N2C(=O)C(=O)/C(=C(/O)c3ccc(F)cc3)C2c2cccc(Br)c2)no1` (stereo not given), the IC50 is > 66.7 µM (inactive) and the Ki is more than 40.3 µM.

The term IC50 denotes the concentration that gives 50% inhibition. The term Ki denotes the dissociation constant of the complex between target and ligand, obtained from inhibition or displacement.
